Laboratory results published in US20230404987A1, “METHOD OF TREATING BREAST CANCER” (Eisai R&D Management Co., Ltd., priority 2020, published 2023).
“And” between values parts separate entries of the source, which are not always exact repeats. Equal values may be shown once.

Assays:
[1] = test system: locally advanced or metastatic ER+, HER2-negative breast cancer; assay: Phase 1/2 study of Compound 1 QD PO: antitumor efficacy (best overall response, CBR, PFS); assay type: in vivo, human; settings: for Confirmed partial responses / Clinical benefit rate (≥23 weeks) / Stable disease (SD) rate: response-evaluable subjects; for mPFS: started on 450 mg; for Median PFS: full analysis set; for Progression free survival, median (95% CI): FIG. 4, Example 3; for Progression free survival, median (95%): FIG. 3, Example 3
Protocol: (§1) Compound 1 was tested in a first-in-human, Phase 1/2 study in women with locally advanced or metastatic ER+, HER2-negative breast cancer. In this multicenter study, women with locally advanced or metastatic ER+, HER2− breast cancer were treated with Compound 1 administered QD, PO over a 28-day cycle after progression on at least 1 hormonal therapy and at least 1 additional therapy/regimen.
(§2) The primary objective of the Phase 1 was to determine the MTD and RP2D in pretreated subjects with ER+, HER2−metastatic breast cancer. Secondary objectives included safety and antitumor activity. The primary objective of the Phase 2 was to estimate the efficacy of this agent in terms of objective response rate (ORR), clinical benefit rate (CBR), and progression-free survival (PFS). Secondary objectives included safety. The trial was designed to exclude a lower limit of ORR of 5% at one-sided level of significance of 0.05 and a power of 90%.
Over 30 months, 130 patients were enrolled; 47 in the Phase 1 part and 83 in the Phase 2 part of the trial. A total of 105 subjects, including 73 subjects on 450 mg were response-evaluable.
Experiments conducted subsequent to those reported in Example 1 were directed to identify the parameters driving the activity of Compound 1 in the trial population. Two parameters were of particular interest: 1) PgR status, and 2) ESR1 mutant type and allele frequency. PFS was used in these analyses because it is a continuous variable. […] The effect of baseline circulating ESR1, of particular ESR1 mutants and their allele frequency was unknown.
The effect of PgR positivity and the detection prior to treatment of ESR1 mutations Y537S and D538G on median PFS was then investigated using the Kaplan-Meier method. The effect of ESR1 clonality was also investigated since the presence of simultaneous clones of ESR1 mutations likely indicates very advanced or complex disease. Of note, the allele frequencies of the different ESR1 mutants were not identical, indicating the presence of multiple clones in a tumor, rather than multiple mutations in the same tumor ESR1 gene. For the purpose of these analyses, clonal Y537S was defined as ESR1 Y537S mutation detected in a pre-treatment whole blood sample at a mutant allele frequency (MAF)≥0.5% with a MAF for D538G<0.5%. Conversely, clonal D538G was defined as ESR1 D538G mutation detected in a pre-treatment whole blood sample at a MAF≥0.5% with a MAF for Y537S<0.5%.
Following data analysis described above, patients remained in the Phase 2 study reported in Example 1, and clinical data collection continued. The primary objective of this study was to estimate the efficacy of Compound 1 in terms of best overall response rate (ORR), duration of response (DoR), clinical benefit rate, and progression-free survival (PFS) in all subjects and in those with and without ERα mutation (ERαMUT).
83 patients were treated with 450 mg in the Phase 2 study of Example 1. Additionally, 11 patients who were treated with 450 mg in the Phase 1 part of the trial (also discussed in Example 1) have been grouped with these 83 Phase 2 patients for discussion in this example. […] Patients were heavily pretreated, and 85% of the patients received prior CDK4/6 inhibitors.

[2] = test system: women with locally advanced or metastatic ER+, HER2-negative breast cancer; assay: Phase 1/2 study of Compound 1 QD PO: safety (DLT, adverse events); assay type: in vivo, human
Protocol: as §1, §2
The Phase 1 part evaluated once daily doses from 100 to 600 mg. […] Consequently, the dose of 450 mg was selected as the RP2D.

[3] = test system: PDX breast cancer models, including those with mutated ESR1; settings: multiple PDX breast cancer models; cited from earlier work
[4] = 450 mg, N = 72, response-evaluable set, Example 3
[5] = 450 mg, N = 73, response evaluable set, Example 1
[6] = 10 patients with clonal ESR1 Y537S, 450 mg, Example 3
[7] = Clonal D538G (N = 17), 450 mg, Example 3
[8] = Clonal Y537S (N = 10), 450 mg, Example 3
[9] = Clonal Y537S or Clonal D538G (N = 27), 450 mg, Example 3
[10] = Polyclonal Y537S and D538G (N = 2), 450 mg, Example 3
[11] = Y537S and D538G Negatives (N = 43), 450 mg, Example 3
[12] = all doses, N = 105, response evaluable set, Example 1

## CN(C)C(=O)/C=C/CNCCOc1ccc(/C(=C(/CC(F)(F)F)c2ccccc2)c2ccc3[nH]nc(F)c3c2)cn1 [Compound 1]
[1]; 450 mg dose, 90% confidence limits 8.7%-23.7
  Confirmed partial responses: 15%
[1]; 450 mg starters with clonal ESR1 Y537S or clonal D538G mutations, Example 2
  Median PFS (Kaplan-Meier): 5.5 months
[1]; 450 mg, N = 72, Example 3
  Median time to response (min, max): 2.7 (1.6, 5.5) mo
[1]; 450 mg, N = 72, Example 3, descriptive median
  Median duration of response (min, max): 7.5 (3.5, 16.6) mo
[1]; [4]
  Best overall response: Complete response: 0 n (%)
  Best overall response: Confirmed partial response: 12 (17) n (%)
  Best overall response: Not evaluable: 2 (3) n (%)
  Best overall response: Progressive disease: 27 (38) n (%)
  Best overall response: Stable disease: 31 (43) n (%)
  Clinical benefit rate (CR + PR + SD ≥ 23 weeks): 29 (40) n (%)
  ORR (95% confidence interval): 17 (9, 27) %
[1]; [5]
  Best overall response: Complete response (CR): 0 N (%)
  Best overall response: Confirmed partial response (PR): 11 (15) N (%)
  Best overall response: Not evaluable: 3 (4) N (%)
  Best overall response: Progressive disease (PD): 26 (36) N (%)
  Clinical benefit rate (CR + PR + SD lasting for ≥23 weeks): 24 (33) N (%)
[1]; 450 mg
  Clinical benefit rate (≥23 weeks): 33%
  Stable disease (SD) rate: 45%
[1]; [6]
  Partial responses: 30%
  Stable disease: 40%
[1]; All subjects, PgR negative, N=34
  mPFS: 2.1 months
[1]; All subjects, PgR positive, N=38
  mPFS: 5.5 months
[1]; [7]
  Clinical benefit rate: 6 (35) n (%)
  Complete response: 0 n (%)
  Confirmed partial response: 0 n (%)
  Not evaluable: 0 n (%)
  Progressive disease: 7 (41) n (%)
  Stable disease: 10 (59) n (%)
[1]; Clonal D538G, 450 mg, Example 3
  Median PFS: 5.4 mo
[1]; Clonal D538G, N=19, 13 events
  Progression free survival, median (95% CI): 5.4 (1.7, 7.2) months
[1]; Clonal D538G, PgR negative, N=3
  mPFS: 1.7 months
[1]; Clonal D538G, PgR positive (≥1%), N=10
  mPFS: 4.5 months
[1]; [8]
  Clinical benefit rate: 6 (60) n (%)
  Complete response: 0 n (%)
  Confirmed partial response: 3 (30) n (%)
  Not evaluable: 0 n (%)
  Progressive disease: 3 (30) n (%)
  Stable disease: 4 (40) n (%)
[1]; Clonal Y537S + Clonal D538G (combined data), PgR negative, N=3
  mPFS: 1.7 months
[1]; Clonal Y537S + Clonal D538G (combined data), PgR positive, N=16
  mPFS: 7.2 months
[1]; [9]
  Clinical benefit rate: 12 (44) n (%)
  Complete response: 0 n (%)
  Confirmed partial response: 3 (11) n (%)
  Not evaluable: 0 n (%)
  Progressive disease: 10 (37) n (%)
  Stable disease: 14 (52) n (%)
[1]; Clonal Y537S or Clonal D538G, 450 mg, Example 3
  Median PFS: 5.4 mo
[1]; Clonal Y537S, 450 mg, Example 3
  Median PFS: 7.3 mo
[1]; Clonal Y537S, N=10, 8 events
  Progression free survival, median (95% CI): 7.3 (0.8, 11.2) months and 7.3 months
[1]; Clonal Y537S, PgR positive (≥1%), N=6
  mPFS: 13.0 months
[1]; PgR Negative (≤1% positive cells), N=34, 20 events
  Progression free survival, median (95%): 2.1 (1.7, 7.4) months
[1]; PgR Positive (≥1% positive cells), N=38, 24 events
  Progression free survival, median (95%): 5.4 (2.0, 8.8) months
[1]; [10]
  Clinical benefit rate: 1 (50) n (%)
  Complete response: 0 n (%)
  Confirmed partial response: 0 n (%)
  Not evaluable: 0 n (%)
  Progressive disease: 1 (50) n (%)
  Stable disease: 1 (50) n (%)
[1]; Polyclonal Y537S and D538G, 450 mg, Example 3
  Median PFS: 3.5 mo
[1]; Polyclonal Y537S and D538G, N=4, 3 events
  Progression free survival, median (95% CI): 3.5 (1.7, 5.4) months
[1]; Polyclonal, PgR positive, N=3
  mPFS: 2.6 months
[1]; [11]
  Clinical benefit rate: 16 (37) n (%)
  Complete response: 0 n (%)
  Confirmed partial response: 9 (21) n (%)
  Not evaluable: 2 (5) n (%)
  Progressive disease: 16 (37) n (%)
  Stable disease: 16 (37) n (%)
[1]; Y537S and D538G Negatives, 450 mg, Example 3
  Median PFS: 3.8 mo
[1]; Y537S and D538G negatives, N=61, 33 events
  Progression free survival, median (95% CI): 3.8 (2.0, 7.3) months
[1]; Y537S/D538G absent, PgR negative, N=31
  mPFS: 2.1 months
[1]; Y537S/D538G absent, PgR positive, N=19
  mPFS: 3.8 months
[1]; all 94 patients treated with 450 mg, Example 3
  Median progression free survival: 5.1 months
[1]; [12]
  Best overall response: Complete response (CR): 0 N (%)
  Best overall response: Confirmed partial response (PR): 13 (12) N (%)
  Best overall response: Not evaluable: 7 (7) N (%)
  Best overall response: Progressive disease (PD): 37 (35) N (%)
  Clinical benefit rate (CR + PR + SD lasting for ≥23 weeks): 36 (34) N (%)
[1]; all doses
  Clinical benefit rate (≥23 weeks): 34%
  Stable disease (SD) rate: 46%
[1]; all doses, 90% confidence limits 7.5%-19%
  Confirmed partial responses: 12%
[1]; monotherapy, once daily 450 mg, heavily pretreated ER+, HER2−, metastatic breast cancer patients
  Anti-tumor activity (conclusion): demonstrated anti-tumor activity
[1]; subjects who started at the 450 mg dose, 95% CI 3.2-6.2, Examples 1 and 2
  Median PFS (Kaplan-Meier): 3.8 months
[2]; 600 mg cohort, in 2 of 7 subjects (Grade 3 fatigue and Grade 3 drug eruption)
  Dose-limiting toxicities (DLTs) observed: 2 DLTs
[2]; Phase 1, once daily doses up to 450 mg
  Dose-limiting toxicities (DLTs): No dose-limiting toxicities
[2]; in vivo
  Grade 1 sinus bradycardia (asymptomatic): 35%
  Grade 2 QTcF prolongation: 2 subjects
  Grade 2 sinus bradycardia (symptomatic, no intervention needed): 4%
  Grade 3 QTcF prolongation: 3 subjects
  Treatment-related deaths: no treatment-related deaths
[2]; once daily, PO
  RP2D (recommended phase 2 dose): 450 mg
[2]; serum bilirubin, urinary tract obstruction, hyponatremia, all considered related to disease progression
  Grade 4 AE: Three
[2]; subjects, all doses
  Grade 2 or higher adverse event: AST increase: 11%
  Grade 2 or higher adverse event: anemia: 20%
  Grade 2 or higher adverse event: diarrhea: 11%
  Grade 2 or higher adverse event: fatigue: 16%
  Grade 2 or higher adverse event: nausea: 14%
[3]
  Antitumor activity: significant antitumor activity
